This is an account of results in patent US9693971B2, “Compositions for alleviating gastrointestinal tract disorders or associated systemic disorders in ruminants and camelids” (FREIE UNIVERSITÄT BERLIN, priority 2012, dated 2017).

“Also recorded” adds a separate entry of the source.

The subject of experiment [1] is E. coli. Conditions: 0.3% menthol in feed dry mass (8 g menthol/day) for 30 days, bulls; cited from earlier work.
In experiment [2] the target is TRPM8 (Homo sapiens, UniProt Q7Z2W7). Conditions: cited from earlier work.
Experiment [3] concerns the target T1, TRPV3 (Homo sapiens, UniProt Q8NET8).
T1 sequence (Q8NET8 1-790): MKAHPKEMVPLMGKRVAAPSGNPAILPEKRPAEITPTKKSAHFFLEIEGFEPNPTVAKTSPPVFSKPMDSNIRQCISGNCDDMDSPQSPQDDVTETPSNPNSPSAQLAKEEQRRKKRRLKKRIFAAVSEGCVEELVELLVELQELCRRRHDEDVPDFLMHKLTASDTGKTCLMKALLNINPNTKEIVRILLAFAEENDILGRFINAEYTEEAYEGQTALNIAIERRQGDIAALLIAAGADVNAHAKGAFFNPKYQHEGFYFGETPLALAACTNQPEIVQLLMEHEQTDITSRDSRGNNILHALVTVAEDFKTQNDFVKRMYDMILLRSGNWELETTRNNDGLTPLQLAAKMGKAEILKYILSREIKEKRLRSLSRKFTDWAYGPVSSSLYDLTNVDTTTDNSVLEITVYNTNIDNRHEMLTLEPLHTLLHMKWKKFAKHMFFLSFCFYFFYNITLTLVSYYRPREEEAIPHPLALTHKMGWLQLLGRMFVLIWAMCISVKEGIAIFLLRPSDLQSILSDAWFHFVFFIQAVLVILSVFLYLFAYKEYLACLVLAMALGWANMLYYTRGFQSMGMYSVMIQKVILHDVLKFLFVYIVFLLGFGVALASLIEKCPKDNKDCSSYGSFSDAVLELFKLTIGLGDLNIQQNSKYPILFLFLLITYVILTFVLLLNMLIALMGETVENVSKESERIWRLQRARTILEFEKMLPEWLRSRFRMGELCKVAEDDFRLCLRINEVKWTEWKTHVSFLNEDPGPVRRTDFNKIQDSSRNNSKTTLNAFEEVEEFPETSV
Conditions: cited from earlier work.

Experiment [4] addresses TRPA1 (Homo sapiens, UniProt O75762). The note with it: cited from earlier work.
Experiment [5] deals with rumen epithelium. Nature of the experiment: Ca^45 calcium flux across rumen epithelium in conventional Ussing chambers, menthol vs control group. Conditions: menthol 200 μM or 1 mM; N=4 cattle, n=85 epithelia; FIG. 10A. It is filed as cell-based. The source says:
(§1) Supplementary, the transport rate of a substance across the epithelium is quantitatively determined by examining the buffer solution prior to and after a defined test period (in conjunction with the methods of an aspect of the present invention for determining the ammonia flux by means of an ammonia electrode (Thermo Scientific Orion 9512HPBNWP, Thermo Fisher Scientific Inc., Waltham, Mass. 02454) while at the same time registering shifts in the solution pH, or measuring the calcium flux with radioactive isotopes).
(§2) For a direct verification of a modulation of the calcium transport across the rumen epithelium, a radioactive calcium isotope (Ca^45) was employed in further experiments. The measurements were carried out in conventional Ussing chambers without continuous perfusion. Herein, tissue of N=4 (cattle) was collected and n=85 epithelia were used therein.
(§3) The isotope was employed on the mucosal side (corresponding to the side on which the food is) and the emergence on the blood side was measured.
Approach: Three groups were formed. One group remained untreated as control. The other two groups were each treated with menthol at a dose of 200 μM or 1 mM, respectively, and compared to the control (100%).

Experiment [6] concerns rumen epithelium from cattle. The experiment in a line: Ussing chamber: ammonium-induced transepithelial short-circuit current (Isc) across isolated rumen epithelium. The experiment is classed as cell-based. Conditions: for influence on ammonium-induced conductivity / transport across rumen epithelium (profile in words): no concentration stated. The source says: The experiments on the intact epithelium take place as already specified (Abdoun, Stumpff et al. 2005; Abdoun, Stumpff et al. 2010). The measuring techniques used are a combination of the Ussing chamber technique developed by Ussing (1949) and the microelectrode technique.
When examining epithelial transport processes with the Ussing chamber, the epithelium is installed in a special chamber, which makes it possible to rinse the two sides of the epithelium (apical: food side; basolateral: blood side) separately of each other with buffer solutions of various composition, wherein the electrophysiological parameters (current and voltage) across the epithelium are traced. Hereby, it is made possible to differentiate between the transport of an uncharged substance (e.g. ammonia, NH3) and the transport of a charged substance (e.g. ammonium, NH4^+), as the former takes place without a change in current and voltage, whereas the latter is coupled with the transfer of a charge and thus changes the transepithelial electrical parameters.
With the help of a special modification, the reaction of individual epithelia to solution changes, taking place very rapidly and smoothly, is also examined over time. Hereby, for example, the reproducibility of a pharmacological intervention on the same piece of epithelium can very well be examined. This modification of the classic Ussing chamber technique is particularly, albeit not exclusively, used for the comparative “screening” of the various substances which are subject of an aspect of the present invention.
The epithelium is horizontally clamped into a modified Ussing chamber, wherein the mucosal side faces upwards. The chamber made of plexi-glass has a cross-section surface of 0.79 cm^2, which is corrected to 1 cm^2. As a protection against damages on the edges of the epithelium, “edge damage”, a silicone ring is in each case placed between chamber and epithelium. The two resulting chambers (mucosal and serosal) are each supplied by their own perfusion system (4-channel-stand-pump, Ismatec SA). With three-way valves, an independent solution change between altogether eight solutions is possible in the two chambers. During storage, the solutions are gassed in their containers with 100% O2. To warm the solutions up to 37° C., the thin perfusion tubes run through a heat exchanger pump. The suction device (Masterflex R/S, Cole Parmer Instrument Company) present in both chambers guarantees a rapid and safe change of solution. In order to ensure that there are no solution change artefacts when adding agonists and antagonists, the substances are pipetted into the respective solution, wherein the gassing ensures a rapid mixing. In this way, pressure fluctuations or an interruption of the flow through the chamber can be safely precluded.
As in the conventional Ussing chamber technique, there are in each case two electrodes near the tissue and two electrodes distant from the tissue for measuring the transepithelial potential difference and the transepithelial current (Isc). The connections between the Ag/AgCl electrodes, which are filled with 3 M KCl, are established via agar bridges. Just as in Strecker (Strecker 2011), the measuring chamber is connected to a “voltage clamp” installation (Ussing chamber unit) in assembly with a microelectrode amplifier (both Biomedical Instruments Co., Germering). A micromanipulator (MF 500) installed above the measuring chamber offers the possibility to move the microelectrode in fine μm steps. Additionally, a microscope as well as a cold-light source are located above the apparatus.
Menthol (Sigma-Aldrich) was dissolved at a concentration of 1 mol·l^−1 in ethanol and pipetted into the used test solution containing ammonium. For an end concentration of 1 mmol·l^−1, 20 μl of this stock solution was added to 20 ml test solution; for 200 μmol·l^−1 correspondingly less. In control experiments, corresponding amounts of pure ethanol were added to the test solution.

Experiment [7] concerns the target T2, TRPV2 (Homo sapiens, UniProt Q9Y5S1).
T2 sequence (Q9Y5S1 1-764): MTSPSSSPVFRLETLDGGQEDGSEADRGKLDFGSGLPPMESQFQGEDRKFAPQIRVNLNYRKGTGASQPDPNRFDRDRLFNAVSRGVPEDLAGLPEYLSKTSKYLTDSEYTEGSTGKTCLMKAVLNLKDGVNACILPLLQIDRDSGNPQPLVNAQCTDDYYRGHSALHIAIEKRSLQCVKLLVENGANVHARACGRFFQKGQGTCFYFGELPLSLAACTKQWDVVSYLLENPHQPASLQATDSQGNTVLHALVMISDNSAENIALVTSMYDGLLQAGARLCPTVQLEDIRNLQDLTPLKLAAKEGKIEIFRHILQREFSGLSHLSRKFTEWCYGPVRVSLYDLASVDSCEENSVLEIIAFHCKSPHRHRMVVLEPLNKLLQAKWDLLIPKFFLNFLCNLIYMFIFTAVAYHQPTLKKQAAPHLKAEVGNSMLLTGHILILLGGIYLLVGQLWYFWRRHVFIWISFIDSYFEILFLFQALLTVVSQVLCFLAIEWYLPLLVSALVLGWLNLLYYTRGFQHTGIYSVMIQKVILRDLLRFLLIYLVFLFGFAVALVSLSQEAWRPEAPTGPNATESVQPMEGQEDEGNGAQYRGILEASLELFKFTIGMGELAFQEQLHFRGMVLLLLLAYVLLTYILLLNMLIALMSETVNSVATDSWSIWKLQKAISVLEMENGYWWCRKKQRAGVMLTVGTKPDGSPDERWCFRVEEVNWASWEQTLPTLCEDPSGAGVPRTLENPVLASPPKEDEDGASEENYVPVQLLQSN
Conditions: cited from earlier work.

In experiment [8] the target is TRPV4 (Homo sapiens, UniProt Q9HBA0). Conditions: cited from earlier work.
Experiment [9] has as its system bacteria flora. Conditions: 1.5 mM thymol (corresponding to 14 g/60 l ruminal fluid); cited from earlier work.
For experiment [10] the following is noted: corresponding to 30 g/60 l; cited from earlier work.
Experiment [11] relates to rumen epithelium. Nature of the experiment: Ca^45 calcium flux across rumen epithelium in conventional Ussing chambers, thymol vs basal value. The experiment is classed as cell-based, one cow, one sheep. The note with it: after adding thymol; N=2, n=44 epithelia; FIG. 10B.
Text: as §1, §2, §3
Approach: First, a basal value of the Ca flux across the rumen epithelium was detected. Then a substance was added. The subsequently measured Ca flux was compared to the starting value (100%). […]

Experiment [12] relates to bacteria flora in the ruminal fluid. The note with it: in vitro, thymol 3-12 g/60 l; cited from earlier work.

Sequence of TRPA1 (O75762 whole entry, species assumed): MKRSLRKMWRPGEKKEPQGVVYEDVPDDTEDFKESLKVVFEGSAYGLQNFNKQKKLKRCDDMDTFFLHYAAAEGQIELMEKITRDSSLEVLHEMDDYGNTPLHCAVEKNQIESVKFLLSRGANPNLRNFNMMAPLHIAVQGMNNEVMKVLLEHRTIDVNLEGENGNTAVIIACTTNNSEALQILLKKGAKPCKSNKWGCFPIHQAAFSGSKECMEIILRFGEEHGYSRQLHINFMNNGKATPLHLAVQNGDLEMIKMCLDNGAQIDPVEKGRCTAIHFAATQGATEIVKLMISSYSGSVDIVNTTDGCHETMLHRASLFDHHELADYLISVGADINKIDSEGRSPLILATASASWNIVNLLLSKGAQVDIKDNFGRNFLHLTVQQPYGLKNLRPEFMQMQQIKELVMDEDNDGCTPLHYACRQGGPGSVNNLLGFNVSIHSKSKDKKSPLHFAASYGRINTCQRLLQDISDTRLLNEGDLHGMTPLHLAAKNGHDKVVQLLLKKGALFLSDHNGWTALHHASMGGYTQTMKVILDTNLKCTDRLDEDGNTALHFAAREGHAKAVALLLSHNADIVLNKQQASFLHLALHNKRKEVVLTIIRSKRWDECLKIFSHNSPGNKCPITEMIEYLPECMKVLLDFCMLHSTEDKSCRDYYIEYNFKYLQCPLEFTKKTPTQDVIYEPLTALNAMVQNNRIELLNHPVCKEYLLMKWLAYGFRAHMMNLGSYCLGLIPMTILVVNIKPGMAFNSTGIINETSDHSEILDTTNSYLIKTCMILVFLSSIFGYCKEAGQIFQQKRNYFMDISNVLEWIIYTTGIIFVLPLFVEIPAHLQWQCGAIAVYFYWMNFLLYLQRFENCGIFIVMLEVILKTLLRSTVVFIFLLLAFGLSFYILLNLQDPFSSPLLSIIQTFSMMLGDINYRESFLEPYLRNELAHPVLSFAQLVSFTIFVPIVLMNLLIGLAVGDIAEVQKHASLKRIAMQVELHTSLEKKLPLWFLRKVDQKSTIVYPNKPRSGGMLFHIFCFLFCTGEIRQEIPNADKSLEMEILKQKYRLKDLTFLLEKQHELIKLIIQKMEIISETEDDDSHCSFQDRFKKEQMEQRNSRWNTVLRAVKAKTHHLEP
Sequence of TRPM8 (Q7Z2W7 whole entry, species assumed): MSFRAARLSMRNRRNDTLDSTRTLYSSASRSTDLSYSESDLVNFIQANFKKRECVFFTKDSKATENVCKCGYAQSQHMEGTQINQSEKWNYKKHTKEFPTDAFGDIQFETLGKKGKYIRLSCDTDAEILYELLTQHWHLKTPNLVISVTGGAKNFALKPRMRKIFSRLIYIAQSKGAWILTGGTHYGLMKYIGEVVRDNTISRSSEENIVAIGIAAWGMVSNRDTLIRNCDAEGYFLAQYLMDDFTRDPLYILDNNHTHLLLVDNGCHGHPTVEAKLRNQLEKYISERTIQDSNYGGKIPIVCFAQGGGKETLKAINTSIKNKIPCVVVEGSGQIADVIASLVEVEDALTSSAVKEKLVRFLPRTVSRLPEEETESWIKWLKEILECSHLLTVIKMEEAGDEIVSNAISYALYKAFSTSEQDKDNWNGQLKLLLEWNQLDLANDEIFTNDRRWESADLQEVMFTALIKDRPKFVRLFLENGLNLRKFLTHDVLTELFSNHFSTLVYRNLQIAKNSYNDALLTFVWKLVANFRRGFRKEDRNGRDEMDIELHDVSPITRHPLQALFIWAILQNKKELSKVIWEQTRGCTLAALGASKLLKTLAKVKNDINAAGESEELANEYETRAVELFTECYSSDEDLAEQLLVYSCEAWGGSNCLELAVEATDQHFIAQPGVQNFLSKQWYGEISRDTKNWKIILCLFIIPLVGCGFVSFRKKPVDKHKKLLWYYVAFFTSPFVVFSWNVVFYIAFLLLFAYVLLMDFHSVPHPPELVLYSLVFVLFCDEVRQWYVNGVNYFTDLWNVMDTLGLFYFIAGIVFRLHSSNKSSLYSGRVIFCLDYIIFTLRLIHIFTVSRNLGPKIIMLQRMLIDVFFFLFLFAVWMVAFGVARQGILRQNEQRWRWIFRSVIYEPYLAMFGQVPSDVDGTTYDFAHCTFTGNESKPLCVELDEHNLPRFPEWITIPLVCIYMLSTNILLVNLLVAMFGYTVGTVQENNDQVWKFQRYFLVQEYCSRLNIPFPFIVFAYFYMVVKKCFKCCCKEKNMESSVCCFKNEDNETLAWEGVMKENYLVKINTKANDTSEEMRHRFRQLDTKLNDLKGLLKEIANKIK
Sequence of TRPV4 (Q9HBA0 whole entry, species assumed): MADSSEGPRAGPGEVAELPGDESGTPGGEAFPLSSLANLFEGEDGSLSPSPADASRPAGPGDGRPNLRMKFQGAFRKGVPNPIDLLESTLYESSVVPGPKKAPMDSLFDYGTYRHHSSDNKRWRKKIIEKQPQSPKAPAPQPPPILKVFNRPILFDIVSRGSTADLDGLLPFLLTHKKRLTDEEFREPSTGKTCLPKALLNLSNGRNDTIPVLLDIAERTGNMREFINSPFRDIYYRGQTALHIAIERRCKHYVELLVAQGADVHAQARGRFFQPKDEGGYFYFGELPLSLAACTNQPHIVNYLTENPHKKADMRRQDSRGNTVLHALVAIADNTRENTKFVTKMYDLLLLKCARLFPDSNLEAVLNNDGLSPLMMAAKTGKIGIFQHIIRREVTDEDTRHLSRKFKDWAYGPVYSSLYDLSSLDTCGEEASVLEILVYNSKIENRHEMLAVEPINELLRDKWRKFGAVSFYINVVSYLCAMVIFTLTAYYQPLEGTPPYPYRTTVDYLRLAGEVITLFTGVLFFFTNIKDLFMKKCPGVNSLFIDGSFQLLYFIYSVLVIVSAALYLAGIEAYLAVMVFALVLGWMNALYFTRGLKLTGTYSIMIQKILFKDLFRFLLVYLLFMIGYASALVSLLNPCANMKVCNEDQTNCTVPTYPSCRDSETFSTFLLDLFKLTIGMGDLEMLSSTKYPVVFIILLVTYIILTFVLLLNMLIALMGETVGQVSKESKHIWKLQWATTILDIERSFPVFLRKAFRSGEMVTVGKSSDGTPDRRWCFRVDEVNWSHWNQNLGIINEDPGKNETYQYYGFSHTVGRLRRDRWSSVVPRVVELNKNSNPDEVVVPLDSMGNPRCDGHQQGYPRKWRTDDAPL

For `CC1CCC(C(C)C)C(O)C1` (centres unmarked) [menthol], the “influence on the amount of E. coli in the feces” value in experiment [1] is given as “no influence on the amount of E. coli in the feces”. Further, in experiment [2], the “Effect on TRPM8” value is “potent TRPM8 agonist”. Also, in [3], the “Effect on TRPV3” value was “nonspecific”. Further, the “Effect on TRPA1” value in experiment [4] is listed as “Antagonist”. In experiment [5], the “calcium transport across the rumen tissue compared to control group (100%)” value was “concentration-dependent increase in the calcium transport”. Moreover, the “transepithelial current, Median” value in experiment [6] (200 μM menthol in 40 mM NH4^+, n=11, before −30.65) is on record as −34.21 μA · cm^−2; in [6] (1 mM menthol in 40 mM NH4^+, n=12, before −22.76), −26.90 μA · cm^−2. In addition, the “transepithelial current, MV” value was −36.34 μA · cm^−2 in experiment [6] (200 μM menthol in 40 mM NH4^+, n=11, before −30.99, washout −26.42) and −28.73 μA · cm^−2 in [6] (1 mM menthol in 40 mM NH4^+, n=12, before −24.20, washout −20.88). In experiment [6] (200 μmol·l^−1 to 1 mmol·l^−1 added to solution containing ammonium, apical), the “change of transepithelial current or voltage” value is “further considerable rise in the transepithelial current”. Moreover, in [6] (1 mM menthol after 40 mM NH4Cl mucosal, FIG. 1 and 2, 13 measurements, three epithelia), the “change of short-circuit current (Isc)” value is given as “further rise in that current; also recorded: statistically significant increase in the current across the epithelium”. In experiment [6], the “influence on ammonium-induced conductivity / transport across rumen epithelium (profile in words)” value is reported as “significantly influenced”.
Consider `CCCCCc1cc(O)c2c(c1)OC(C)(C)[C@@H]1CCC(C)=C[C@@H]21` [Tetrahydrocannabinol, tetrahydrocannabinol], for which the “Effect on TRPA1” value in experiment [4] is “Agonist”. Moreover, the “Effect on TRPV2” value in experiment [7] is recorded as “Agonist”.
In the case of `C=C1CC[C@@H]2[C@](C)(CO)[C@H](O)CC[C@@]2(C)[C@@H]1/C=C/C1=CC(C(C[C@@H]2C(=C)CC[C@@H]3[C@](C)(CO)[C@H](O)CC[C@]32C)C2=CCOC2=O)OC1=O` (some centres unmarked) [Bisandrographolide A], in [8], the “Effect on TRPV4” value was “Agonist”.
`Cc1ccc(C(C)C)c(O)c1` [thymol]: the “influence on methane, ammonium, acetate and propionate production” value in experiment [9] was “no influence on the methane, ammonium, acetate and propionate production”. In addition, the “concentration with significant influence on pH, NH3 concentration and production of volatile fatty acids (VFA)” value in experiment [10] is no less than 500 mg/1. For the same compound, the “Effect on TRPV3” value in experiment [3] is reported as “TRPV3 agonist; also recorded: nonspecific”. Also, in experiment [11], the “Ca flux across the rumen epithelium compared to starting value (100%)” value is “no significant long-term reduction of the calcium transport; also recorded: trend to increase the calcium resorption”. The “effect on the bacteria flora in the ruminal fluid” value in experiment [12] is recorded as “no effect on the bacteria flora in the ruminal fluid”. In addition, the “transepithelial current, Median” value in experiment [6] (100 μM thymol in 40 mM NH4^+, n=4, before −19.30) is given as −19.35 μA · cm^−2. The “transepithelial current, MV” value in experiment [6] (100 μM thymol in 40 mM NH4^+, n=4, before −22.47, washout −15.82, p = 0.498) was −22.19 μA · cm^−2. In addition, the “influence on ammonium-induced conductivity / transport across rumen epithelium (profile in words)” value in experiment [6] was “inhibition, which can still be verified after washing out”.
